This note sets out measurements from patent US9364448B2, “Nitisinone for treatment of oculocutaneous/ocular albinism and for increasing pigmentation” (The United States of America, as represented by the …, priority 2010, dated 2016).

SMILES strings stand for the structures.

Common to all, as to type: cell-based
The subject of experiment [1] is wild-type human melanocytes. Nature of the experiment: Human melanocyte melanin assay, wild-type (control). The following applies: 1 mM tyrosine, about one week. The method, then:
(§1) Human melanocyte culture and melanin assay. Human melanocytes were established from skin punch biopsies. Skin specimens were washed with PBS then treated with 0.25% trypsin-EDTA (Gibco 25200) for about 2 hours followed by vigorous vortexing to separate the epidermis. The epidermis was sectioned and attached to scored patches on the bottom of a 6-well polystyrene culture dish before being covered with melanocyte media. About 1000 ml of melanocyte media was made from 950 ml Ham's F10 (Gibco 1550), 25 ml FBS, 5 ug bFGF (Sigma F0291), 10 μg endothelin (Sigma, E7764, Sigma Chemicals, St. Louis, Mo.), 7.5 mg IBMX (Sigma 17018), 30 μg cholera toxin (Sigma C8052), 3.3 μg TPA (Sigma P8139), 10 ml PenStrepGlutamine, 1 ml fungizone and the media was 0.22 μm filtered.
(§2) Melanocytes were plated on 6 well dishes and grown to confluency. Melanin assays were run in triplicate by supplementing three wells per plate with 1 mM tyrosine (Sigma T8566), using the remaining 3 wells as untreated controls. Treatment time was approximately one week. […] The OD475 was measured and converted to melanin content via a standard curve using synthetic melanin (Sigma M0418). The data were normalized to protein content, determined using a bicinchoninic (BCA) assay kit (BioRad, Inc., Hercules, Calif.). Differences between treated and untreated measurements were analyzed with a two-tailed unpaired t-test. […]

Experiment [2] has as its system melanocytes from an OCA-1A patient. Nature of the experiment: Human melanocyte melanin assay, OCA-1A patient. The following applies: presence or absence of 1 mM tyrosine. How it is done:
as §1, §2

Another experiment concerns the target T1, H420R mouse tyrosinase (Mus musculus, UniProt P11344, H420R).
T1 construct: expressed in transfected cells; host or cells: CHO cells, pcDNA3.1
T1 sequence (P11344 19-533 H420R): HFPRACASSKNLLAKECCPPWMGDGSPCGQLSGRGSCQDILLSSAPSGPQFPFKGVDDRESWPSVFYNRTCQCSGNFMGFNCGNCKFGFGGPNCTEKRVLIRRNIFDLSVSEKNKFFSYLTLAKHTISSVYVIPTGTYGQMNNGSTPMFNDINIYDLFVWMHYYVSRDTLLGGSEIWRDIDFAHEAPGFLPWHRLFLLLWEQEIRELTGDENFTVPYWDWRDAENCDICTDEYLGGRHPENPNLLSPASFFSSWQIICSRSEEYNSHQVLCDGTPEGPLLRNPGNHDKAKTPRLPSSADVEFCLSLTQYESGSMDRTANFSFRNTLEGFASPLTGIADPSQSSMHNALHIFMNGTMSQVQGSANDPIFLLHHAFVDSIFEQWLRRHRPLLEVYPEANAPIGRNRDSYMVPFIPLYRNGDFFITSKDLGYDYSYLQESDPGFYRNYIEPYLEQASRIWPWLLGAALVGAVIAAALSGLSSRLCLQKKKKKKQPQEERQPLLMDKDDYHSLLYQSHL
Nature of the experiment: Tyrosinase protein stability in CHO cells with cycloheximide, H420R. The following applies: 1 mM tyrosine, later time points (9 and 24 hours). How it is done: In Vitro Expression and Enzyme Activity. The expression construct of mouse Tyr was a kind gift of Dr. C. Olivares from the School of Medicine of the University of Murcia (Spain). This construct was prepared in the pcDNA3.1 expression vector (Invitrogen, Carlsbad, Calif.) using EcoRI/XbaI restriction sites and based on the mouse Tyr clone obtained as described previously in C. Olivares, et al., Biochem. J., 354:131 (2001). Constructs of tyrosinase gene mutant variants, with changes corresponding to missense mutations R77L and H420R in the mouse tyrosinase protein sequence, were created using standard methodologies (Mutagenex Inc., Piscataway, N.J.). […]
Chinese hamster ovary cells (CHO) (generous gift from Dr. J. T. Wroblewski from the Pharmacology Department, Georgetown University Medical Center, Washington D.C.) were grown at a temperature of about 37° C. in DMEM media, in the presence of 10% fetal bovine serum, 1% penicillin and 4.5 g […] per 0.5 liter of media. […] The total protein content in protein lysates was determined spectrophotometrically as a 280/260 ratio. Protein expression was analyzed by Western blotting, and GAPDH was used as an internal loading control. For the analysis, Western blots were scanned, intensities of protein bands were determined, and ratios of band intensities for the wild type or mutant variants, to that of GAPDH were calculated. […]

With `N[C@@H](Cc1ccc(O)cc1)C(=O)O` [tyrosine], the Melanin production entry in experiment [1] is given as “produce significant melanin”. Also, the Pigment production result in experiment [2] is reported as “did not produce detectable pigment”. Further, the “Stability of H420R mutant tyrosinase protein relative to GAPDH” value at H420R mouse tyrosinase is on record as “improved the stability”.
